Assay results taken from patent publication US10774082B2, “Quinazoline compound” (Astellas Pharma Inc., priority 2017, dated 2020).
Where two headings read alike, the source gives them in different places.

How the values were obtained:
[1] = target: T1, KRAS G12C/SOS/c-Raf complex (Homo sapiens, UniProt P01116, G12C); assay: KRAS G12C/SOS/c-Raf complex formation inhibitory action (TR-FRET); format: biochemical; conditions: one hour at room temperature, read-out: IC50 (KRAS G12C/SOS/c-Raf complex formation inhibition)
T1 construct: Biotinylated AviTag-KRAS G12C (amino acid region 1-185, GDP)
T1 sequence (P01116 1-185 isoform P01116-2 G12C, one chain of several): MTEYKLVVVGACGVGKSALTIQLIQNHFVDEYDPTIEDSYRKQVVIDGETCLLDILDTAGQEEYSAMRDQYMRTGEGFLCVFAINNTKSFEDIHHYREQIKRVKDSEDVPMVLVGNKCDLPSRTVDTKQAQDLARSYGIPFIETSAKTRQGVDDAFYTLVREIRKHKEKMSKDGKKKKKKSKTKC
Outline: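 Biotin-AviTag KRAS G12C (1-185, GDP-bound) was mixed with compound (4,000 to 4 nM stock dilutions), SOS (564-1049), GST-c-Raf (51-131) and GTP in pH 7.4 HEPES/NaCl/MgCl2/Tween buffer for 1 h at room temperature. Complex formation was read by TR-FRET with Eu-streptavidin and ULight-anti-GST (ex 337 nm, em 620/665 nm).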

pERK in NCI-H1373 tumor = assay: Intratumoral pERK inhibitory action in NCI-H1373 tumor of nude mice (TR-FRET); format: in vivo, mouse; conditions: for pERK inhibition (%) / inhibition at 10 mg/kg: 10 mg/kg; for inhibition at 3 mg/kg: read-out: pERK inhibition (%)
Experimental: Evaluation of Intratumoral pERK Inhibitory Action
The phosphorylation amount of ERK in tumor sample after administration of test compound was examined by using pERK measurement kit (Advanced ERK phospho-T202/Y204 kit, Cisbio co., Ltd) through a TR-FRET method.
2.0 to 5.0×10^6 NCI-H1373 cells were prepared by using a solution in which an equivalent amount of Matrigel (Becton. Dickinson and Company) was added to PBS, were injected subcutaneously in a volume of 100 μL and planted to male nude mice of 4-5 weeks old (CAnN.Cg-Foxn 1 nu/CrlCrlj (nu/nu), Charles River Laboratories Japan, Inc.), and then the male nude mice were used for the test 15 to 26 days later. The test was conducted with three mice in a solvent group and three mice in a test compound administration group, and the test compounds were prepared by using a solvent such that the dosage thereof is as indicated in Table 4. The test compound was administered subcutaneously or orally. For subcutaneous administration, physiological saline supplemented with equimolar hydrochloric acid was used as a solvent. For oral administration, 6% 2-hydroxypropyl-β-cyclodextrin (Sigma-Aldrich Co. LLC) was used as a solvent. Six hours after the administration, a tumor was excised from a cervical dislocated mouse under isoflurane anesthesia, and a part thereof was put into a 2 mL Eppendorf tube and frozen using liquid nitrogen. The tumor sample was stored in a deep freezer at −80° C. until it was subjected to the pERK measurement test.
500 μL of lysis buffer 1 (Phospholysis buffer [Cisbio Co., Ltd], Complete EDTA free [Roche Diagnostics K.K.], Phosphatase inhibitor cocktail 2 [Sigma-Aldrich Co. LLC]) and one bead (5 mm YTZ ball [Nikkato Corp.]) was added to the tumor sample, and crushed (frequency 25/s for 3 minutes) by using Tissue Lyser II (QIAGEN GmbH). The whole amount was transferred to a new tube and centrifuged (20,400×g for 10 minutes, 4° C.) by using a micro amount high speed cooling centrifuge so as to obtain a tumor lysate which is a supernatant. Protein quantification of tumor lysate was performed by using a protein quantification kit (Pierce 660 nm Protein Assay Kit [Thermo Fisher Scientific Inc.]), and each sample was diluted by using lysis buffer 2 (Phosphorysis buffer [Cisbio Co., Ltd], Blocking Agent [attached to pERK measurement kit]) such that the amount thereof is to be a final concentration of 0.5 μg/μL.
Each of p-ERK1/2 Cryptate antibody and p-ERK1/2 d2 antibody (attached to pERK measurement kit) was diluted 20-fold with each detection buffer (attached to pERK measurement kit), and thereby a mixed solution of these two types of antibodies was prepared. A mixed solution of antibody was added to a 384 well plate at a volume of 4 μL/well. Further, tumor lysate diluted to 0.5 μg/μL was added at a volume of 16 μL/well. After standing at room temperature in a wet box for about 17 hours, the fluorescence intensity at 620 nm and 665 nm was measured under the condition of excitation wavelength of 337 nm by using EnVision 2103 Multilabel Reader (PerkinElmer Co., Ltd.).

[2] = Mus musculus, NCI-H1373, sc, 6 h, Subcutaneous administration, tumor six hours after administration
[3] = Oral administration, tumor six hours after administration
[4] = Mus musculus, NCI-H1373, po, 6 h, Oral administration, tumor six hours after administration
[5] = Mus musculus, NCI-H1373, sc, 6 h

| SMILES | IC50 [1] | inhibition at 10 mg/kg (pERK in NCI-H1373 tumor; [4]) | also measured |
| --- | --- | --- | --- |
| C=CC(=O)N1CC2(CCN(c3nc(OC4CCN(C)CC4)nc4c(OCC)c(-c5c(C)ccc6[nH]ncc56)c(C5CC5)cc34)CC2)C1 [Ex 2] | 37 nM | – | inhibition at 1 mg/kg (pERK in NCI-H1373 tumor; [2]): 54% |
| C=CC(=O)N1CC2(CCN(c3nc(OC4CCN(CC(C)(C)O)CC4)nc4c(OCC(F)(F)F)c(-c5c(C)ccc6[nH]ncc56)c(C=C)cc34)CC2)C1 [Example 40] | 15 nM | – | pERK inhibition (%) (pERK in NCI-H1373 tumor; [3]): 58% |
| C=CC(=O)N1CC2(CCN(c3nc(OC4CCN(C5COC5)CC4)nc4c(OCC)c(-c5c(C)ccc6[nH]ncc56)c(C5CC5)cc34)CC2)C1 [Example 34] | 36 nM | 54% | – |
| C=CC(=O)N1CC2(CCN(c3nc(OC4CCN(C5COC5)CC4)nc4c(OCC(F)(F)F)c(-c5c(C)ccc6[nH]ncc56)c(C=C)cc34)CC2)C1 [Example 33] | 44 nM | 71% | – |
| C=CC(=O)N1CC2(CCN(c3nc(N4CC(N(C)C)C4)nc4c(OCC(F)(F)F)c(-c5c(C)ccc6[nH]ncc56)c(C=C)cc34)CC2)C1 [Example 65] | 46 nM | 68% | – |
| C=CC(=O)N1CC2(CCN(c3nc(OC4CCN(C5CCOCC5)CC4)nc4c(OCC(F)(F)F)c(-c5c(C)ccc6[nH]ncc56)c(C=C)cc34)CC2)C1 [Ex 30] | 45 nM | 56% | – |
| C=CC(=O)N1CC2(CCN(c3nc(OC4CCN(CCOC)CC4)nc4c(OCC(F)(F)F)c(-c5c(C)ccc6[nH]ncc56)c(C5CC5)cc34)CC2)C1 [Example 35] | 17 nM | – | pERK inhibition (%) (pERK in NCI-H1373 tumor; [3]): 68% |
| C=CC(=O)N1CC2(CCN(c3nc(OC4CCN(CCOC)CC4)nc4c(OCC(F)(F)F)c(-c5c(C)ccc6[nH]ncc56)c(C=C)cc34)CC2)C1 [Ex 26] | 41 nM | 50% | – |
| C=CC(=O)N1CC2(CCN(c3nc(OC4CCN(CC)CC4)nc4c(OCC)c(-c5c(C)ccc6[nH]ncc56)c(C=C)cc34)CC2)C1 [Ex 7] | 33 nM | – | inhibition at 3 mg/kg (pERK in NCI-H1373 tumor; Mus musculus, NCI-H1373, sc, 6 h, Subcutaneous administration, 3 mg/kg, tumor six hours after administration): 59% |
| C=CC(=O)N1CC2(CCN(c3nc(OC[C@@H]4CCCN4C)nc4c(OCC(F)F)c(-c5c(C)ccc6[nH]ncc56)c(C5CC5)cc34)CC2)C1 [Ex 4] | 35 nM | – | inhibition at 1 mg/kg (pERK in NCI-H1373 tumor; [2]): 58% |
| C=CC(=O)N1CC2(CCN(c3nc(OC4CCN(C)CC4F)nc4c(OCC(F)(F)F)c(-c5c(C)ccc6[nH]ncc56)c(C=C)cc34)CC2)C1 (stereo not drawn) [Example 52] | 56 nM | 68% | – |
| C=CC(=O)N1CC2(CCN(c3nc(OC4CCN(CCOCC)CC4)nc4c(OCC(F)(F)F)c(-c5c(C)ccc6[nH]ncc56)c(C=C)cc34)CC2)C1 [Example 37] | 17 nM | – | pERK inhibition (%) (pERK in NCI-H1373 tumor; [3]): 63% |
| C=CC(=O)N1CCN(c2nc(OC3CCN(C)CC3)nc3c(F)c(-c4c(C)ccc5[nH]ncc45)c(Cl)cc23)CC1 [Compound C, reference compound] | 68 nM | – | inhibition at 30 mg/kg (pERK in NCI-H1373 tumor; Mus musculus, NCI-H1373, sc, 6 h, Subcutaneous administration, 30 mg/kg, tumor six hours after administration): 54% |
| C=CC(=O)N1CC2(CCN(c3nc(OC4CCN(C)CC4)nc4c(OCC)c(-c5c(C)ccc6[nH]ncc56)c(C=C)cc34)CC2)C1 [Ex 24] | 21 nM | – | inhibition at 40 mg/kg (pERK in NCI-H1373 tumor; Mus musculus, NCI-H1373, po, 6 h, Oral administration, 40 mg/kg, tumor six hours after administration): 72% |
| C=CC(=O)N1CC2(CCN(c3nc(OC4CCN(C)CC4)nc4c(OCC(F)F)c(-c5c(C)ccc6[nH]ncc56)c(C5CC5)cc34)CC2)C1 [Ex 3] | 29 nM | – | inhibition at 1 mg/kg (pERK in NCI-H1373 tumor; [2]): 57% |
| C=CC(=O)N1CC2(CCN(c3nc(OC4CCN(CCOC)CC4)nc4c(OCC(F)F)c(-c5c(C)ccc6[nH]ncc56)c(C5CC5)cc34)CC2)C1 [Example 32] | 39 nM | 55% | – |
| C=CC(=O)N1CC2(CCN(c3nc(OC4CCN(C5CCOCC5)CC4)nc4c(OCC(F)(F)F)c(-c5c(C)ccc6[nH]ncc56)c(C=C)cc34)CC2)C1 (single isomer, unassigned) [Ex 39] | 14 nM | 43% | – |
| C=CC(=O)N1CC2(CCN(c3nc(OC4CCN(Cc5ccccn5)CC4)nc4c(OCC(F)(F)F)c(-c5c(C)ccc6[nH]ncc56)c(C=C)cc34)CC2)C1 [Example 56] | 63 nM | 53% | – |
| C=CC(=O)N1CC2(CCN(c3nc(OC4CCN(CCCOC)CC4)nc4c(OCC(F)(F)F)c(-c5c(C)ccc6[nH]ncc56)c(C5CC5)cc34)CC2)C1 [Ex 28] | 38 nM | 46% | – |
| C=CC(=O)N1CC2(CCN(c3nc(N4CCN(C)CC4)nc4c(OCC(F)(F)F)c(-c5c(C)ccc6[nH]ncc56)c(C=C)cc34)CC2)C1 [Example 50] | 50 nM | 63% | – |
| C=CC(=O)N1CC2(CCN(c3nc(OC4CCN(CCOC)CC4)nc4c(OCC(F)(F)F)c(-c5c(C)ccc6[nH]ncc56)c(C5CC5)cc34)CC2)C1 [Ex 25] | 48 nM | 66% | – |
| C=CC(=O)N1CC2(CCN(c3nc(OC[C@@H]4CCCN4C)nc4c(OCC)c(-c5c(C)ccc6[nH]ncc56)c(C=C)cc34)CC2)C1 [Example 16] | 45 nM | – | inhibition at 3 mg/kg (pERK in NCI-H1373 tumor; [5]): 51% |
| C=CC(=O)N1CC2(CCN(c3nc(OC[C@@H]4CCCN4C)nc4c(OC5CCC5)c(-c5c(C)ccc6[nH]ncc56)c(C=C)cc34)CC2)C1 [Example 15] | 52 nM | – | inhibition at 3 mg/kg (pERK in NCI-H1373 tumor; [5]): 53% |
| C=CC(=O)N1CC2(CCN(c3nc(OC4CCN(CCOCC)CC4)nc4c(OCC(F)(F)F)c(-c5c(C)ccc6[nH]ncc56)c(C=C)cc34)CC2)C1 [Example 29] | 49 nM | 62% | – |
